According to patent US8957022B2, “Multimeric tie 2 agonists and uses thereof in stimulating angiogenesis” (Sunnybrook Health Sciences Centre, priority 2006, dated 2015):

What was measured:
[1] = system: Cos 1 fibroblast cells and C166 EC's (phenotypically null for Tie 2); assay: MAPK and AKT phosphorylation in Ad-EGFP infected cells null for Tie 2; type: cell-based; settings: EGFP infected Cos 1 and C166 cells
Protocol: To more formally address the specificity of clustered Vasculotide for the Tie 2 receptor, reconstitution experiments were performed in Cos 1 fibroblast cells and C166 EC's, both of which are phenotypically null for Tie 2. Cos 1 and C166 cells (ATCC) were maintained on 10-cm-diameter plates (Nunc) in Dulbecco's modified Eagle's medium (DMEM) supplemented with 10% (FBS), 1× penicillin, 1× streptomycin, and 200 mM L-glutamine (all Gibco BRL) in a 5% CO2 incubator at 37° C. Cos1 or C166 cells were infected (MOI 30) overnight with adenoviruses encoding one of either enhanced green fluorescent protein (EGFP) or Tie 2. Infection efficiency was confirmed by epifluorescence (EGFP), or by immunoblot (Tie 2).
Cells infected with recombinant adenovirus encoding EGFP or Tie 2 were either left unstimulated or stimulated with Vasculotide, clustered Vasculotide or avidin for 16 hours, after which MTS reagent was applied to all samples for 4 hours. Absorbance at 492 was measured using a multiwell plate reader (Power Wave X340, Biotek Instruments Inc). To broadly examine the potential that clustered Vasculotide was activating Tie 2-independent downstream signalling pathways, the activation of MAPK and AKT in the EGFP infected cells was examined. […] This fact precluded us from stimulating these cells any further with Vasculotide or clustered Vasculotide.

HUVEC = assay: Modified Boyden chamber migration assay; type: cell-based, human; settings: for Chemotactic cell migration versus no treatment: 4 hours, clustered Vasculotide 2 nM and 10 nM
Protocol: To test if Vasculotide, like Ang 1, was capable of promoting these processes, the effect of Vasculotide on EC migration was tested using a modified Boyden chamber assay. HUVEC were seeded at a density of 8.4×10^4 cells in 500 μl of F12 growth media plus 0.1% FBS in the upper chamber of an 8 μm pore size modified Boyden chamber (Falcon). 500 μl of F12 media plus 0.1% FBS plus various growth factors (Ang 1 (R& D Systems), unclustered or clustered Vasculotide, VEGF (R&D Systems) or clustered Vasculotide in combination with VEGF) or controls were placed in the bottom chamber. Cells were allowed to migrate for 4 hours in a 37° C., 5% CO2 incubator. Nonmigrating cells were scraped off, and filters were fixed in 100% methanol for 5 minutes, stained with Harris' Hematoxylin (BDH) for 10 minutes and washed twice with tap water for 3 minutes each. Filters were then mounted using Aquapolymount mounting medium. Cells that had migrated more than 50% of the way through the pore were scored as positive for migration.
Student's t test was used to test the statistical significance with a 95% confidence interval. Stimulations were performed in triplicate and migrating cells in 6 microscopic fields per replicate were counted.

CD1 mice = assay: Matrigel plug angiogenesis assay; type: in vivo, mouse; settings: for Vessel growth in plugs (confocal analysis): FITC lectin
Protocol: To further examine the in vivo angiogenic potential of Vasculotide, a Matrigel assay was performed. More specifically, growth factor reduced Matrigel (BD Biosciences) was impregnated with either clustered Vasculotide or one of several different control factors. These Matrigel samples were injected subcutaneously into the flank region of 3 month old CD1 mice. 14 days post implantation and immediately prior to sacrifice, FITC lectin (100 μg) was injected IV and allowed to circulate for 10 minutes, to facilitate vessel identification and quantification. Plugs were surgically resected and fixed in 4% paraformaldehyde (PFA) for 16 h. Images of vascular topology were taken using a Zeiss dissecting microscope at 4× magnification. Upon fixing, all plugs were whole mount stained with anti-Sma1-Cy3. Plugs were analyzed on a Zeiss Axiovert 100 M confocal microscope (Carl Zeiss) for three dimensional image reconstruction and photos were processed using LSM Image Browser and Adobe Photoshop 7.0. Morphometric quantification of vessel characteristics was performed by skeletonizing confocal image projections with Image Processing Tool Kit 5.0 (IPTK 5.0). Student's t test was used to test the statistical significance with a 95% confidence interval. All experiments were performed with three replicates each, with at least 5 random image stacks.
To more fully address and assign quantitative vessel parameters to the different treatment groups, the plugs were fixed and interrogated with laser confocal microscopy analysis combined with post processing image analysis (Image Processing Tool Kit 5.0, Reindeer Graphics, N.C.). Vessel parameters, including length, number and branch points (nodes) were quantified on at least six representative fields. Statistical analysis was performed by way of unpaired Student's t test. Bar graphs of the number of vessels, vessel length and number of nodes, for each treatment group, are shown in FIGS. 3A, 3B and 3C, respectively. It is noted that poor perfusion of FITC-lecithin into mice harboring 20 nM clustered Vasculotide plus VEGF plugs prevented statistical analysis, therefore bars are the mean of two separate fields. All other bars shown represent mean+/−SD.
Ang 1 has been reported to potentiate the recruitment of myogenic support cells (Suri, C. et al. (1996) Cell 87:1171-1180) and inhibit VEGF induced vascular permeability through mechanisms that are not well understood (Thurston, G. et al. (2000) Nat. Med. 6:460-463). To determine if Vasculotide, like Ang 1, was capable of initiating pericyte recruitment, whole mount immunofluorescence was performed against smooth muscle actin 1 (Sma1). […] Sma 1 staining was tightly associated with the exterior of the vessels and was enriched on larger vessels.

[2] = system: B6.Cg-m(+/+)Lepr(db)/J (db/db) mice; assay: Excisional wound healing in diabetic mice, topical application; type: in vivo, mouse
Protocol: Pathogen free, nine week old B6.Cg-m(+/+)Lepr(db)/J (db/db) mice were purchased from Jackson Laboratories. Circular, full excisional, 6 mm diameter wounds were made, according to animal committee approval guidelines, equal distant apart on the dorsal side of the mice. Various factors were suspended in sterile Intrasite Topical Gel (Smith and Nephew) at noted concentrations. Treatments were as follows: Vehicle n=8, bFGF (10 μg/ml) n=8, clustered Vasculotide (20 nM) n=4, clustered Vasculotide (5 nM) n=4. Preparations were applied at day 0 (time of wounding), day 2, 4 and 6. Standardized images were taken on days 0, 2, 4, 6 and 7 using a Canon EOS digital Rebel camera. Image J (NIH) was used to manually outline wound perimeter from which total pixel counts (wound area) were determined. Mice were sacrificed on day 7 and full wound beds including margin were excised and fixed in 4% PFA. Wounds were cut in half at the widest point and each half was prepared for either paraffin or frozen sections. Wax sections were processed according to standard protocols for H&E and Masson's Trichrome stain. Images were captured using a Leica DMLS compound light microscope and Pixel Link camera at 5× and 20×. Student's t test was used to test the statistical significance.
For histological scoring, sections were fixed in 4% paraformaldehyde, embedded in paraffin and sectioned and stained with H & E and Masson's trichrome. Sections were evaluated by a pathologist for re-epithelialization, granulation tissue formation, and inflammation, with criteria used for scoring skin as follows:
• 0—none • 1—minimal (0-20% regrowth from wound margins) • 2—mild (25% to 50% regrowth) • 3—moderate (>50% regrowth, up to 100% but not >2 cells thick along length) • 4—complete regrowth (epithelium>1 cell thick along length, keratinized) Granulation Tissue (GT) and Neovascularization: • 0—none • 1—minimal (1-3 small, isolated islands of GT at margins of defect) • 2—mild (multifocal, patchy islands of GT underlying tissue defect, <10 new blood vessels) • 3—moderate (locally extensive bands of GT underlying length of defect) • 4—marked (dense bands of GT at margins and underlying length of defect with collagen fibrils and numerous blood vessels) Inflammation (within Defect): • 0—none • 1—minimal (a few scattered neutrophils at margins of defect) • 2—mild (multifocal aggregates of up to 5 neutrophils underlying defect) • 3—moderate (multifocal aggregates of up to 10 neutrophils and occasional macrophages, minimal to mild edema) • 4—marked (locally extensive, dense neutrophilic infiltrates with lesser numbers of macrophages, mild-moderate edema)

Substance | Phosphorylation of MAPK or AKT above non-stimulated samples [1] | Chemotactic cell migration versus no treatment (HUVEC) | Vessel growth in plugs (confocal analysis) (CD1 mice; 14 days post implantation) | Granulation tissue production (H&E and MT staining) ([2]; day 7 wound sections) | Migration compared with VEGF or Ang 1 (HUVEC; VEGF 100 ng/ml, Ang 1 500 ng/ml (FIG. 2B legend)) | Nature of vessels (arborization, tortuosity) (CD1 mice; 14 days post implantation) | Angiogenic response in the membranous capsule surrounding the plugs (CD1 mice; 14 days post implantation, subcutaneous) | Smooth muscle actin 1 (Sma1) staining, pericyte recruitment (CD1 mice; whole mount immunofluorescence) | Benefit at lower concentration ([2]; 5 nM versus 20 nM) | Inflammation (histological score) ([2]; 5 nM, p=0.0979) | Regranulation and neovascularization (histological score) ([2]; 20 nM and 5 nM p=0.0006) | Wound margin (pixel counts) at day 2 ([2]; 20 nM topical, p=0.05, n=4) | Re-epithelialization (histological score) ([2]; 20 nM, p=0.0004 and 5 nM, p=0.029) | Inflammation (histological score) ([2]; 20 nM, p=0.034) | Overall collagen deposition (Masson's Trichrome) ([2]; both concentrations, compared to vehicle and bFGF) | Lymphangiogenesis (podoplannin-positive vessels) ([2]; immunohistochemistry) | PECAM1- and Pan EC-positive vessels within the granulation tissue ([2]; immunohistochemistry, 5 nM and 20 nM) | Margin closure for the duration of the assay ([2]; topical, days 0-7)
Vasculotide: biotinylated T7 peptide-PEG: Cys-His-His-His-Arg-His-Ser-Phe (SEQ ID NO: 2) conjugated to EZ-link-PEO-maleimide-biotin | Neither Vasculotide nor clustered Vasculotide significantly induced phosphorylation of MAPK or AKT | did not promote migration above that seen in the untreated sample | no significant vessel growth | dramatic increases in granulation tissue production |  |  |  |  |  |  |  |  |  |  |  |  |  | 
clustered Vasculotide: Vasculotide clustered with avidin in a 4:1 ratio, an obligate tetrameric compound | Neither Vasculotide nor clustered Vasculotide significantly induced phosphorylation of MAPK or AKT | significant increases in chemotactic cell migration | robust induction of angiogenesis |  | not significantly different than that seen in samples treated with VEGF or Ang 1 | clear, large, well arborized vessels | distinct and robust angiogenic response | significant increase in overall Sma 1 staining | seemed to offer more benefit | not significantly different from vehicle | profound increases in regranulation and neovascularization | Significant decreases in wound margin | delayed re-epithelialization | only slightly increased | dramatically increased | not accompanied by an increase in lymphangiogenesis | dramatic increases in the number of PECAM1- and Pan EC-positive vessels | continued at an accelerated pace
